Test results from patent US7655683B2, “Imidazolopyrazole derivatives useful as selective androgen receptor modulators” (Janssen Pharmaceutica NV, priority 2006, dated 2010).
Read-outs that look alike come from different tables or passages of the source.

Legend:
[1] = test system: ventral prostate and levator ani of immature castrated male Sprague Dawley rats; assay: Ventral Prostate and Levator ani Weight in vivo Assay (agonist activity); parameters: key to % Prostate Stimulation / % levator ani Stimulation: level 1 agonist active if it produced greater than or equal to 30% stimulation of levator ani or ventral prostate at 30 mg/kg; level 2 agonist active if it produced greater than or equal to 5% but less than 30% stimulation of levator ani or ventral prostate at 30 mg/kg; listed herein as “inactive” as they did not meet the specified criteria defined above; settings: once daily for five days, oral, vehicle = 0%, testosterone propionate = 100%, criteria at 30 mg/kg; for change in vivo at 30 mg/kg: Rattus norvegicus, 120 h
Experimental: Immature (approximately 50 g) castrated male Sprague Dawley rats (Charles River) were treated once daily for five days with test compound ([…], in 30% cyclodextrin or 0.5% methylcellulose vehicle), or with testosterone propionate (administered subcutaneously by injection at the nape of the neck at 5 mg/kg, in a volume of 0.1 mL in sesame oil), or with vehicle (1 mL of 30% cyclodextrin or 0.5% methylcellulose, given orally). On the sixth day, the rats were euthanized by asphyxiation in carbon dioxide. Ventral prostates and levator ani. muscle were removed and their wet weights determined.
Test compound activity was determined as the percent stimulation of tissue weight, with the vehicle-treated control group set to zero percent and the testosterone alone-treated control group set to 100%.

[2] = test system: ventral prostate and seminal vesicle of immature castrated male Sprague Dawley rats; assay: Ventral Prostate and Seminal Vesicle Weight in vivo Assay (antagonist activity, with testosterone propionate); parameters: key to Inhibition of prostate (non-weight prostate weight, mg) / Inhibition of seminal vesicle (non-weight seminal vesicle weight, mg): level 1 agonist active if it produced greater than or equal to 30% stimulation of levator ani or ventral prostate at 30 mg/kg; level 2 agonist active if it produced greater than or equal to 5% but less than 30% stimulation of levator ani or ventral prostate at 30 mg/kg; listed herein as “inactive” as they did not meet the specified criteria defined above; settings: test compound oral plus testosterone propionate 2 mg/kg s.c., five days, criteria at 30 mg/kg; for inhibition in vivo at 30 mg/kg: Rattus norvegicus, 120 h
Experimental: Immature (approximately 50 g) castrated male Sprague Dawley rats (Charles River) were treated once daily for five days with test compound ([…], in 30% cyclodextrin or 0.5% methylcellulose vehicle) and with testosterone propionate (given subcutaneously by injection at the nape of the neck at 2 mg/kg, in a volume of 0.1 mL in sesame oil). On the sixth day, the rats were euthanized by asphyxiation in carbon dioxide. Ventral prosatates and seminal vesicles were removed and their wet weights determined. Test compound activity was determined as the percent inhibition of testosterone-enhanced tissue weights, with a vehicle-treated control group set to zero percent and a testosterone alone-treated control group set to 100%.

[3] = seminal vesicle wet weight, read-out: Inhibition of seminal vesicle (non-weight seminal vesicle weight, mg)
[4] = levator ani wet weight, 30 mg/kg
[5] = ventral prostate wet weight, 30 mg/kg

Compound | change in vivo at 30 mg/kg ([1]; levator ani wet weight, read-out: % levator ani Stimulation) [%] | change in vivo at 30 mg/kg ([1]; ventral prostate wet weight, read-out: % Prostate Stimulation) [%] | inhibition in vivo at 30 mg/kg [2, 3] [%] | inhibition in vivo at 30 mg/kg ([2]; ventral prostate wet weight, read-out: Inhibition of prostate (non-weight prostate weight, mg)) [%] | % levator ani Stimulation [1, 4] | % Prostate Stimulation [1, 5] | Inhibition of seminal vesicle (non-weight seminal vesicle weight, mg) ([2]; seminal vesicle wet weight) | Inhibition of prostate (non-weight prostate weight, mg) ([2]; ventral prostate wet weight) | % levator ani Stimulation ([1]; levator ani wet weight) | % Prostate Stimulation ([1]; ventral prostate wet weight)
CC12CC(C(F)(F)F)=NN1C(=N)O/C2=N\c1ccc(C#N)c(C(F)(F)F)c1 (stereo not drawn) [Compound 15, 4-(6-Imino-3a-methyl-2-trifluoromethyl-3,3a-dihydro-pyrazolo[1,5-c]oxazol-4-ylideneamino)-2-trifluoromethyl-benzonitrile] | ≥ 30 | 5 to 30 | 5 to 30 | 5 to 30 | – | – | – | – | – | –
C[C@]12CC(C(F)(F)F)=NN1C(N)=NC2=Nc1ccc(C#N)c(C(F)(F)F)c1.O [Compound 20, 4-(6-Amino-3aR-methyl-2-trifluoromethyl-3,3a-dihydro-imidazo[1,5-b]pyrazol-4-ylideneamino)-2-trifluoromethyl-benzonitrile-Hydrates] | – | – | – | – | level 2 (level 2 agonist active if it produced greater than or equal to 5% but less than 30% stimulation of levator ani or ventral prostate at 30 mg/kg) | level 2 (level 2 agonist active if it produced greater than or equal to 5% but less than 30% stimulation of levator ani or ventral prostate at 30 mg/kg) | level 1 (level 1 antagonist active if it produced greater than or equal to 30% inhibition of ventral prostate or seminal vesicle at 30 mg/kg) | level 2 (level 2 antagonist active if it produced greater than or equal to 5% but less than 30% inhibition of ventral prostate or seminal vesicle at 30 mg/kg) | – | –
CC12CC(C(F)(F)F)=NN1C(N)=N/C2=N\c1ccc([N+](=O)[O-])c(C(F)(F)F)c1 (stereo not drawn) [Compound 5, 3a-Methyl-4-(4-nitro-3-trifluoromethyl-phenylimino)-2-trifluoromethyl-3a,4-dihydro-3H-imidazo[1,5-b]pyrazol-6-ylamine] | – | – | ≥ 30 | – | – | – | – | inactive | inactive | inactive
C[C@@]12CC(C(F)(F)F)=NN1C(N)=NC2=Nc1ccc(C#N)c(C(F)(F)F)c1.O [Compound 18, 4-(6-Amino-3aS-methyl-2-trifluoromethyl-3,3a-dihydro-imidazo[1,5-b]pyrazol-4-ylideneamino)-2-trifluoromethyl-benzonitrile-Hydrates] | – | – | – | – | level 2 (level 2 agonist active if it produced greater than or equal to 5% but less than 30% stimulation of levator ani or ventral prostate at 30 mg/kg) | inactive | inactive | inactive | – | –
C[C@@]12CC(C(F)(F)F)=NN1C(N)=NC2=Nc1ccc(C#N)c(C(F)(F)F)c1.O [Compound 19, 4-(6-Amino-3aS-methyl-2-trifluoromethyl-3,3a-dihydro-imidazo[1,5-b]pyrazol-4-ylideneamino)-2-trifluoromethyl-benzonitrile-Hydrates] | – | – | – | – | level 1 (level 1 agonist active if it produced greater than or equal to 30% stimulation of levator ani or ventral prostate at 30 mg/kg) | level 1 (level 1 agonist active if it produced greater than or equal to 30% stimulation of levator ani or ventral prostate at 30 mg/kg) | level 1 (level 1 antagonist active if it produced greater than or equal to 30% inhibition of ventral prostate or seminal vesicle at 30 mg/kg) | level 1 (level 1 antagonist active if it produced greater than or equal to 30% inhibition of ventral prostate or seminal vesicle at 30 mg/kg) | – | –
CC12CC=NN1C(N)=N/C2=N\c1ccc(C#N)c(C(F)(F)F)c1 (stereo not drawn) [Compound 6, 4-(6-Amino-3a-methyl-3,3a-dihydro-imidazo[1,5-b]pyrazol-4-ylideneamino)-2-trifluoromethyl-benzonitrile] | – | – | 5 to 30 | – | – | – | – | inactive | inactive | inactive
